Data published in patent US10344060B2 (priority 2013, dated 2019).

Assays:
hNav1.7 = hNav1.7 (Homo sapiens, UniProt Q15858); experiment: cell-based; assay type: cell-based; details: Table 12; PatchXpress, tonic block; read-out: PX hNav1.7 Tonic IC50
hNav1.4 = hNav1.4 (Homo sapiens, UniProt P35499); experiment: cell-based; assay type: cell-based; details: Table 12; for IC50: PatchXpress, tonic block, read-out: PX hNav1.4 Tonic IC50; for Nav1.4/Nav1.7: ratio of PX tonic IC50 values
Chain of hNav1.4 (P35499 whole entry): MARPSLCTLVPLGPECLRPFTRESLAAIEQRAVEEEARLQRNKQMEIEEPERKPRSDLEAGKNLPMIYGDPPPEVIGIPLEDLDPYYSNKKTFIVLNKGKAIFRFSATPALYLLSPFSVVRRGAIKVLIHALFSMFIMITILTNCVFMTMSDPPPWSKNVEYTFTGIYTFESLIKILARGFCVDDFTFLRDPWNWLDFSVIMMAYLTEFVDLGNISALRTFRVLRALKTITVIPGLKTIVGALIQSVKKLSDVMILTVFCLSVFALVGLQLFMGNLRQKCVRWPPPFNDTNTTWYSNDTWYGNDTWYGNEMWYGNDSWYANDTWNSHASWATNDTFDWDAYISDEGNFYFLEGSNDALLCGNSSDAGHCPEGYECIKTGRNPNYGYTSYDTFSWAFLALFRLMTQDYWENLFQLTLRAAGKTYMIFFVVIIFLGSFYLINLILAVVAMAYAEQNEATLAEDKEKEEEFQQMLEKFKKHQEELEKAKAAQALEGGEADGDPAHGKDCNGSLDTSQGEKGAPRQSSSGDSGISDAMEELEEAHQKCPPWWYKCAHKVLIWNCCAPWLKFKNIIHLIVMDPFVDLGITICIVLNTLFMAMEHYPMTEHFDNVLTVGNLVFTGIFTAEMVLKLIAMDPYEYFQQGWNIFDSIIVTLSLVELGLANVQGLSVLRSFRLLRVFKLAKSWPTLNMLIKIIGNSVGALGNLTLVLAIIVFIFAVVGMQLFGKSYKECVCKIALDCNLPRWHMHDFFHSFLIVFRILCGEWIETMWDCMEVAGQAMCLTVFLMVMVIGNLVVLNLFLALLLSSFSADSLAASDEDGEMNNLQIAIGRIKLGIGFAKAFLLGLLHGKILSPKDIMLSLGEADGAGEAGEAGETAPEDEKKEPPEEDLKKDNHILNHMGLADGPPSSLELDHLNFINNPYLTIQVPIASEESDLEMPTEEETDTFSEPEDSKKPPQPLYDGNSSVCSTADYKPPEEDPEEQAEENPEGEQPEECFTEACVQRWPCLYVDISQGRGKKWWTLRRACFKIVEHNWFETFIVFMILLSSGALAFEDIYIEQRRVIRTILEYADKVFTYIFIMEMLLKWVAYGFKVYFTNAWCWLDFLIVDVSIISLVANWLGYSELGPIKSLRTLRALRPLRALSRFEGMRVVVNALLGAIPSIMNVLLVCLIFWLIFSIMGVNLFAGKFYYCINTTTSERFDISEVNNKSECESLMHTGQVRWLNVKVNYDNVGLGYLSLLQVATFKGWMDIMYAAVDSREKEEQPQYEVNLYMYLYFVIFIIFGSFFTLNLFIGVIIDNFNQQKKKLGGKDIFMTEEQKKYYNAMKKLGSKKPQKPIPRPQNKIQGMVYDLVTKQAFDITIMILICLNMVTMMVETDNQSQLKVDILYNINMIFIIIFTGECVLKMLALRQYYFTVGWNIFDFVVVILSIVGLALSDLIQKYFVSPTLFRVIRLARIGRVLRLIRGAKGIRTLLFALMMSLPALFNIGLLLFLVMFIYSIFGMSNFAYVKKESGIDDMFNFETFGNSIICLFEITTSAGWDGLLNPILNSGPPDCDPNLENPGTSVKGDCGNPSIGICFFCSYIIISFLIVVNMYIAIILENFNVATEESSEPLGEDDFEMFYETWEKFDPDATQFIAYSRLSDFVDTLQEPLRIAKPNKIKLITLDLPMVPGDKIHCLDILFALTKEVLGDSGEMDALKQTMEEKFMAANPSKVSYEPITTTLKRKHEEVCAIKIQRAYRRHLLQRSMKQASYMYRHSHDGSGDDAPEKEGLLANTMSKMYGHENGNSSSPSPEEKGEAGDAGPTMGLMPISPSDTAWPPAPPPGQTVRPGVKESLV

Chain of hNav1.7 (Q15858 whole entry): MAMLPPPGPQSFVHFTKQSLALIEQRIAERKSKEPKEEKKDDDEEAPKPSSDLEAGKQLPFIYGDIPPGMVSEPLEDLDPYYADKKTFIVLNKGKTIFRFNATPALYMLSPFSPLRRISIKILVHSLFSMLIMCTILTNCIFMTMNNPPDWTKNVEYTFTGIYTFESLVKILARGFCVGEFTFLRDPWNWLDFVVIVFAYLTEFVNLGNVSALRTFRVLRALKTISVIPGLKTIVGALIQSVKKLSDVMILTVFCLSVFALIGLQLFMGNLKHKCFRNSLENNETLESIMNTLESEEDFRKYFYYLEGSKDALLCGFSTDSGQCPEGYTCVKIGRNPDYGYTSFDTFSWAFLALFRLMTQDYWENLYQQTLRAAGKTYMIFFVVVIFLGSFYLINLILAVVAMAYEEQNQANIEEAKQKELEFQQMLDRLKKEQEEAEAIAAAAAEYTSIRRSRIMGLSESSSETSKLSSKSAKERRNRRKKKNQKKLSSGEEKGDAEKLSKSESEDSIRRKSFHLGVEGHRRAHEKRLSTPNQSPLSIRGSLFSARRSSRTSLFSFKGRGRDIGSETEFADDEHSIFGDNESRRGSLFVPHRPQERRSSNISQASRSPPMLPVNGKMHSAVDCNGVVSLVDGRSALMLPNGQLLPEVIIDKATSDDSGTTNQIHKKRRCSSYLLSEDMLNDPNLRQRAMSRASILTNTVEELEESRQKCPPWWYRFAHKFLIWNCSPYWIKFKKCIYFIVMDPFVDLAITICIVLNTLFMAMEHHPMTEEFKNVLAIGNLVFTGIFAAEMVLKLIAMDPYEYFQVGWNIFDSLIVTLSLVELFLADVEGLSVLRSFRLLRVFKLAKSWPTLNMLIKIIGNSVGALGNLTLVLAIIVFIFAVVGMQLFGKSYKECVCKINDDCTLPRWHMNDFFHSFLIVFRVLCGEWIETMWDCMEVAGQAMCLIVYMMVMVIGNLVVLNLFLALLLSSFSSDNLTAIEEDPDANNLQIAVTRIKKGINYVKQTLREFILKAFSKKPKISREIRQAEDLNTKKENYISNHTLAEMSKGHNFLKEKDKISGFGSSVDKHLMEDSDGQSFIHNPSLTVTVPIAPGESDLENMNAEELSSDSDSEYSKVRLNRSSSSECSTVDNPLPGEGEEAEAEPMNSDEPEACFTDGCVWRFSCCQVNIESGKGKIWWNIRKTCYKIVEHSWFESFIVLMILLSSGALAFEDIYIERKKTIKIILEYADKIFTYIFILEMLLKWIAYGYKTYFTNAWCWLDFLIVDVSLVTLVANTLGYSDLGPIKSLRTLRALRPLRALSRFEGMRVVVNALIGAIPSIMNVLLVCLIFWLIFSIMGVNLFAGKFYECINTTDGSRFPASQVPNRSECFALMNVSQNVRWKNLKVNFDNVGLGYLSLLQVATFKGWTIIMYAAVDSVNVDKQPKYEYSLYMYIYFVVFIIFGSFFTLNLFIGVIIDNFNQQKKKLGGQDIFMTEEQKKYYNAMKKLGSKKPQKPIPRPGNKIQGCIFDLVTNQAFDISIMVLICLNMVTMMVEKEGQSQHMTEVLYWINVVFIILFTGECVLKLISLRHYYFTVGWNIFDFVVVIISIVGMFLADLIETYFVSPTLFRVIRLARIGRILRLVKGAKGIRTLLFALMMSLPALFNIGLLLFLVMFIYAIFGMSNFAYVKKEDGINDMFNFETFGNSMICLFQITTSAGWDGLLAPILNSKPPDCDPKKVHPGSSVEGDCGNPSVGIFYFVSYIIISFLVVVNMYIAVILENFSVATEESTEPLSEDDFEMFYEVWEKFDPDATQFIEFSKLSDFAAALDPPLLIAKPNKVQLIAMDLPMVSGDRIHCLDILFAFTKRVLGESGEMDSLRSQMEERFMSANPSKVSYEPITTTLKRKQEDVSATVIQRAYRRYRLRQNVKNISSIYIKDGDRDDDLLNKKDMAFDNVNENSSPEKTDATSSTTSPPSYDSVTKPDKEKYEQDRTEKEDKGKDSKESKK

Structure (SMILES)	IC50 (hNav1.7) [nM]	IC50 (hNav1.4) [nM]	Nav1.4/Nav1.7 (hNav1.4)
C#CC[C@H](N)C(=O)N[C@@H](Cc1ccc(O)cc1)C(=O)N[C@H]1CSSC[C@@H]2NC(=O)[C@@H]3CSSC[C@@H](C(=O)N[C@@H](CCCNC(=N)N)C(=O)N[C@@H](CCCCN)C(=O)N[C@@H](CCC(=O)O)C(=O)N[C@H](C(N)=O)[C@@H](C)CC)NC(=O)[C@H](Cc4c[nH]c5ccccc45)NC(=O)[C@H](CC(C)C)NC(=O)[C@H](CCCCN)NC(=O)[C@H](CSSC[C@H](NC(=O)[C@H]([C@@H](C)O)NC(=O)[C@H](Cc4ccccc4)NC(=O)[C@H](CCCC)NC(=O)[C@H](Cc4c[nH]c5ccccc45)NC(=O)[C@H](CCCCN)NC(=O)[C@H](CCC(N)=O)NC1=O)C(=O)N[C@@H](CC(=O)O)C(=O)N[C@@H](CO)C(=O)N[C@@H](CCCCN)C(=O)N[C@@H](CCCNC(=N)N)C(=O)N[C@@H](C)C(=O)N3)NC(=O)[C@H](CCCNC(=N)N)NC(=O)[C@H](CC(C)C)NC(=O)CNC(=O)[C@H](CCC(=O)O)NC2=O [compound 848]	12.6	1010	80
C#CC[C@H](N)C(=O)N[C@@H](Cc1ccc(O)cc1)C(=O)N[C@H]1CSSC[C@@H]2NC(=O)[C@@H]3CSSC[C@@H](C(=O)N[C@@H](CCCNC(=N)N)C(=O)N[C@@H](CCCCN)C(=O)N[C@@H](CCC(=O)O)C(=O)N[C@H](C(=O)NCC(=O)O)[C@@H](C)CC)NC(=O)[C@H](Cc4c[nH]c5ccccc45)NC(=O)[C@H](CC(C)C)NC(=O)[C@H](CCCCN)NC(=O)[C@H](CSSC[C@H](NC(=O)[C@H]([C@@H](C)O)NC(=O)[C@H](Cc4c[nH]c5ccccc45)NC(=O)[C@H](CCCC)NC(=O)[C@H](Cc4c[nH]c5ccccc45)NC(=O)[C@H](CCCCN)NC(=O)[C@H](CCC(N)=O)NC1=O)C(=O)N[C@@H](CC(=O)O)C(=O)N[C@@H](CO)C(=O)N[C@@H](CCCCN)C(=O)N[C@@H](CCCNC(=N)N)C(=O)N[C@@H](C)C(=O)N3)NC(=O)[C@H](CCCNC(=N)N)NC(=O)[C@H](CC(C)C)NC(=O)CNC(=O)[C@H](CCC(=O)O)NC2=O [compound 828]	8.34	1760	211
C#CC[C@@H]1NC(=O)[C@@H]2CSSC[C@H](NC(=O)[C@H](Cc3ccc(O)cc3)NC(=O)[C@@H](N)CC#N)C(=O)N[C@@H](CCC(N)=O)C(=O)N[C@@H](CCCCN)C(=O)N[C@@H](Cc3c[nH]c4ccccc34)C(=O)N[C@@H](CCCC)C(=O)N[C@@H](Cc3c[nH]c4ccccc34)C(=O)N[C@@H]([C@@H](C)O)C(=O)N[C@H]3CSSC[C@H](NC(=O)[C@H](CCCNC(=N)N)NC(=O)[C@H](CC(C)C)NC(=O)CNC1=O)C(=O)N[C@@H](CCCCN)C(=O)N[C@@H](CC(C)C)C(=O)N[C@@H](Cc1c[nH]c4ccccc14)C(=O)N[C@H](C(=O)N[C@@H](CCCNC(=N)N)C(=O)N[C@@H](CCCCN)C(=O)N[C@@H](CCC(=O)O)C(=O)N[C@@H](Cc1ccccc1)C(N)=O)CSSC[C@H](NC(=O)[C@H](C)NC(=O)[C@H](CCCNC(=N)N)NC(=O)[C@H](CCCCN)NC(=O)[C@H](CO)NC(=O)[C@H](CC(=O)O)NC3=O)C(=O)N2 [compound 876]	1.09	72.1	66
C#CC[C@H](N)C(=O)N[C@@H](Cc1ccc(O)cc1)C(=O)N[C@H]1CSSC[C@@H]2NC(=O)[C@@H]3CSSC[C@@H](C(=O)N[C@@H](CCCNC(=N)N)C(=O)N[C@@H](CCCCN)C(=O)N[C@@H](CCC(=O)O)C(=O)N[C@H](C(N)=O)[C@@H](C)CC)NC(=O)[C@H](Cc4c[nH]c5ccccc45)NC(=O)[C@H](CC(C)C)NC(=O)[C@H](CCCCN)NC(=O)[C@H](CSSC[C@H](NC(=O)[C@H]([C@@H](C)O)NC(=O)[C@H](Cc4c[nH]c5ccccc45)NC(=O)[C@H](Cc4ccccc4)NC(=O)[C@H](Cc4c[nH]c5ccccc45)NC(=O)[C@H](CCCCN)NC(=O)[C@H](CCC(N)=O)NC1=O)C(=O)N[C@@H](CC(=O)O)C(=O)N[C@@H](CO)C(=O)N[C@@H](CCCCN)C(=O)N[C@@H](CCCNC(=N)N)C(=O)N[C@@H](C)C(=O)N3)NC(=O)[C@H](CCCNC(=N)N)NC(=O)[C@H](CC(C)C)NC(=O)CNC(=O)[C@H](CCC(=O)O)NC2=O [compound 863]	1.36	61.6	45
